Structures can show the parent of a compound that is named as a salt. Where two headings read alike, the source gives them in different places.
Test system: platelet aggregation
Experiment: Inhibition of platelet aggregation in vitro (rat blood);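 for Inhibition of platelet aggregation in vitro (rat blood) in μM: aggregation induced by ADP added as 4 µL of a 250 µM solution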
Format: cell-based
Experimental: The measurements of platelet aggregation are performed at 37° C. in glass tubes (Chrono-Log—Kordia aggregometer).
Inhibition of Platelet Aggregation In Vitro (Rat Blood)
The blood is taken from male rats of the Sprague-Dawley strain, weighing 250-300 g.
The platelet-rich plasma (PRP) is obtained by centrifugation of the blood at 300 g for 5 minutes, and the measurements of platelet aggregation are performed as described above.
The results are calculated using the area under the curve of absorbance measured for 6 minutes, and expressed as percentage inhibition.

[1] = rat blood, in vitro, read-out: Inhibition of platelet aggregation in vitro (rat blood);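 for Inhibition of platelet aggregation in vitro (rat blood) in μM: aggregation induced by ADP added as 4 µL of a 250 µM solution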
[2] = rat platelet-rich plasma, ADP-induced aggregation, area under the curve of absorbance for 6 minutes, read-out: Inhibition of platelet aggregation in vitro (rat blood);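 for Inhibition of platelet aggregation in vitro (rat blood) in μM: aggregation induced by ADP added as 4 µL of a 250 µM solution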

IC50 [1] | Compound | IC50 [2] | further results
0.31 µM | CCCC(=O)c1cnn(-c2ccc(NC(=O)c3cn(CC(=O)N4CCN(Cc5ccc(F)cc5)CC4)c4ccc(Cl)cc34)cc2)c1C [Compound 165] |  | 
0.25 µM | CCCC(=O)c1cnn(-c2ccc(NC(=O)c3cn(CC(=O)N4CCN(CCNC(C)=O)CC4)c4ccc(Cl)cc34)cc2)c1C [Compound 197] |  | 
0.27 µM | CCCC(=O)c1cnn(-c2ccc(NC(=O)c3cn(CC(=O)N4CCC(N(C)C)C4)c4ccc(C)cc34)cc2)c1C (stereo not drawn) [Compound 120] |  | 
0.61 µM | CCCC(=O)c1cnn(-c2ccc(NC(=O)c3cn(CC(=O)N4Cc5cccnc5C4)c4ccc(Cl)cc34)cc2)c1C [Compound 187] |  | 
0.15 µM | CCCC(=O)c1cnn(-c2ccc(NC(=O)c3cn(CC(=O)N4CCN(CCS(C)(=O)=O)CC4)c4ccc(Cl)cc34)cc2)c1C [Compound 148] |  | 
0.73 µM | CC(=O)c1cnn(-c2ccc(NC(=O)c3cn(CC(=O)N4CCN(C)CC4)c4ccc(Cl)cc34)cc2)c1C [Compound 216] |  | 
1.06 µM | CCCC(=O)c1cnn(-c2ccc(NC(=O)c3cn(CC(=O)N4CCN(CC5CC5)CC4)c4ccc(C)cc34)cc2)c1C [Compound 121] |  | 
0.23 µM | CCCC(=O)c1cnn(-c2ccc(NC(=O)c3cn(CC(=O)N4CCN5C(=O)CCC5C4)c4ccc(Cl)cc34)cc2)c1C (stereo not drawn) [Compound 183] |  | 
1.01 µM | CCCC(=O)c1cnn(-c2ccc(NC(=O)c3cn(CC(=O)N4CCN(Cc5cccs5)CC4)c4ccc(C)cc34)cc2)c1C [Compound 164] |  | 
0.27 µM | CCCC(=O)c1cnn(-c2ccc(NC(=O)c3cn(CC(=O)N4CCN(CC(N)=O)CC4)c4ccc(Cl)cc34)cc2)c1C [Compound 199] |  | 
0.58 µM | CCCC(=O)c1cnn(-c2ccc(NC(=O)c3cn(CC(=O)N4CCCC(N(C)C)C4)c4ccc(C)cc34)cc2)c1C (stereo not drawn) [Compound 125] |  | 
0.64 µM | CCCC(=O)c1cnn(-c2ccc(NC(=O)c3cn(CC(=O)N4CCCCC4CN4CCCC4)c4ccc(C)cc34)cc2)c1C (stereo not drawn) [Compound 141] |  | 
0.36 µM | CCCC(=O)c1cnn(-c2ccc(NC(=O)c3cn(CC(=O)N4CCN(C)CC4)c4ccc(C(F)(F)F)cc34)cc2)c1C [Compound 203] |  | 
0.4 µM | CCCC(=O)c1cnn(-c2ccc(NC(=O)c3cn(CC(=O)N(C)C4CCS(=O)(=O)C4)c4ccc(Cl)cc34)cc2)c1C (stereo not drawn) [Compound 169] |  | 
0.25 µM | CCCCN1CCN(C(=O)Cn2cc(C(=O)Nc3ccc(-n4ncc(C(=O)CCC)c4C)cc3)c3cc(Cl)ccc32)CC1 [Compound 151] |  | 
0.33 µM | CCCC(=O)c1cnn(-c2ccc(NC(=O)c3cn(CC(=O)N4CCn5ccnc5C4)c4ccc(Cl)cc34)cc2)c1C [Compound 172] |  | 
2.21 µM | CCCC(=O)c1cnn(-c2ccc(NC(=O)c3cn(CC(=O)N(C)C)c4cc(C)c(C)cc34)cc2)c1C [Compound 106] |  | 
0.24 µM | CCCC(=O)c1cnn(-c2ccc(NC(=O)c3cn(CC(=O)N4CCN(CCN(C)C)CC4)c4ccc(Cl)cc34)cc2)c1C [Compound 150] |  | 
0.29 µM | CCCC(=O)c1cnn(-c2ccc(NC(=O)c3cn(CC(=O)N4CCOCC4)c4ccc(C)cc34)cc2)c1C [Compound 128] |  | 
0.42 µM | CCCC(=O)c1cnn(-c2ccc(NC(=O)c3cn(CC(=O)N4CCN(CC(O)C(F)(F)F)CC4)c4ccc(Cl)cc34)cc2)c1C (stereo not drawn) [Compound 209] |  | 
0.56 µM | CCOC(=O)c1cnn(-c2ccc(NC(=O)c3cn(CC(=O)N4CCN(C)CC4)c4ccc(Cl)cc34)cc2)c1C [Compound 218] |  | 
0.3 µM | CCCC(=O)c1cnn(-c2ccc(NC(=O)c3cn(CC(=O)N4CCN(CCC)CC4)c4ccc(Cl)cc34)cc2)c1C [Compound 156] |  | 
2.42 µM | CCCC(=O)c1cnn(-c2ccc(NC(=O)c3cn(CC(=O)NC)c4cc(C)c(C)cc34)cc2)c1C [Compound 109] |  | 
0.18 µM | CCCC(=O)c1cnn(-c2ccc(NC(=O)c3cn(CC(=O)N4CCN(C(C)(C)CO)CC4)c4ccc(Cl)cc34)cc2)c1C [Compound 181] |  | 
0.98 µM | CCCC(=O)c1cnn(-c2ccc(NC(=O)c3cn(CC(=O)N(C)CCO)c4cc(C)c(C)cc34)cc2)c1C [Compound 108] |  | 

The next lines start with the molecule.

Compound | IC50 [1] | IC50 [2] | further results
CCCC(=O)c1cnn(-c2ccc(NC(=O)c3cn(CC(=O)N4CCC(CO)CC4)c4ccc(Cl)cc34)nn2)c1C [Compound 56] |  | 0.3 µM | 
CCCC(=O)c1cnn(-c2ccc(NC(=O)c3cn(CC(=O)N4CCC(NC)CC4)c4ccc(C)cc34)cc2)c1C [Compound 248] |  | 0.32 µM | 
CCCC(=O)c1cnn(-c2ccc(NC(=O)c3cn(CC(=O)O)c4ccc(F)cc34)cc2)c1C [Compound 18] |  | 36 µM | 
CCCC(=O)c1cnn(-c2ccc(NC(=O)c3cn(CC(=O)O)c4ccc(-c5ccccc5)cc34)cc2)c1C [Compound 15] |  | 25 µM | 
CCCC(=O)c1cnn(-c2ccc(NC(=O)c3cn(CC(=O)N4CC(C)NC(C)C4)c4ccc(C)cc34)cc2)c1C (stereo not drawn) [Compound 247] |  | 0.26 µM | 
CCCC(=O)c1cnn(-c2ccc(NC(=O)c3cn(CC(=O)N4CCN(CCOC(F)(F)F)CC4)c4ccc(Cl)cc34)nn2)c1C [Compound 30, N-[6-(4-Butyryl-5-methyl-1H-pyrazol-1-yl)pyridazin-3-yl]-5-chloro-1-(2-oxo-2-{4-[2-(trifluoromethoxy)ethyl]piperazin-1-yl}ethyl)-1H-indole-3-carboxamide hydrochloride] |  |  | IC50 (Rattus norvegicus, Platelet, 0.1 h, read-out: Inhibition of platelet aggregation in vitro (rat blood) in μM): 0.1 µM
CCCC(=O)c1cnn(-c2ccc(NC(=O)c3cn(CC(=O)N4CCCN(C)CC4)c4ccc(Cl)cc34)nn2)c1C [Compound 99] |  | 0.11 µM | 
CCCC(=O)c1cnn(-c2ccc(NC(=O)c3cn(CC(=O)N4CC5CCCN5CC4C)c4ccc(Cl)cc34)nn2)c1C (stereo not drawn) [Compound 88] |  | 0.09 µM | 
CCCC(=O)c1cnn(-c2ccc(NC(=O)c3cn(CC(=O)N4CCC(OC)CC4)c4ccc(Cl)cc34)nn2)c1C [Compound 94] |  | 0.18 µM | 
CCCC(=O)c1cnn(-c2ccc(NC(=O)c3cn(CC(=O)N4CCN(C)C(CO)C4)c4ccc(C)cc34)cc2)c1C (stereo not drawn) [Compound 268] |  | 0.24 µM | 
CCCC(=O)c1cnn(-c2ccc(NC(=O)c3cn(CC(=O)N4CCN(CC(=O)NC5CC5)CC4)c4ccc(Cl)cc34)nn2)c1C [Compound 81] |  | 0.04 µM | 
CCCC(=O)c1cnn(-c2ccc(NC(=O)c3cn(CC(=O)N4CCN(c5ccc(F)cc5)CC4)c4ccc(Cl)cc34)nn2)c1C [Compound 45] |  | 0.42 µM | 
CCCC(=O)c1cnn(-c2ccc(NC(=O)c3cn(CC(=O)N4CCC(O)CC4)c4ccc(Cl)cc34)nn2)c1C [Compound 68] |  | 0.07 µM | 
CCCC(=O)c1cnn(-c2ccc(NC(=O)c3cn(CC(=O)N4CCN(C(=O)N(C)C)CC4)c4ccc(Cl)cc34)nn2)c1C [Compound 69] |  | 0.1 µM | 
CCCC(=O)c1cnn(-c2ccc(NC(=O)c3cn(CC(=O)N4CC5CN(C)CC5C4)c4ccc(C)cc34)cc2)c1C (stereo not drawn) [Compound 266] |  | 0.4 µM | 
CCCC(=O)c1cnn(-c2ccc(NC(=O)c3cn(CC(=O)N(C)C4CC4)c4ccc(Cl)cc34)nn2)c1C [Compound 90] |  | 0.06 µM | 
CCCC(=O)c1cnn(-c2ccc(NC(=O)c3cn(CC(=O)O)c4cc(C)ccc34)cc2)c1C [Compound 8] |  | 63 µM | 
CCCC(=O)c1cnn(-c2ccc(NC(=O)c3cn(CC(=O)O)c4cc(C)c(C)cc34)cc2)c1C [Compound 16] |  | 4.6 µM | 

Compound | IC50 [1] | IC50 [2] | further results
CCCC(=O)c1cnn(-c2ccc(NC(=O)c3cn(CC(=O)NC(C)c4nn[nH]n4)c4ccc(Cl)cc34)nn2)c1C (stereo not drawn) [Compound 78] |  | 0.28 µM | 
CCCC(=O)c1cnn(-c2ccc(NC(=O)c3cn(CC(=O)O)c4ccc(C(F)(F)F)cc34)cc2)c1C [Compound 13] |  | 4.6 µM | 
CCCC(=O)c1cnn(-c2ccc(NC(=O)c3cn(CC(=O)N4CCC(C(F)(F)F)C4)c4ccc(Cl)cc34)nn2)c1C (stereo not drawn) [Compound 75] |  | 0.27 µM | 
CCCC(=O)c1cnn(-c2ccc(NC(=O)c3cn(CC(=O)NCc4n[nH]c(C)n4)c4ccc(Cl)cc34)nn2)c1C [Compound 74] |  | 0.12 µM | 
CCCC(=O)c1cnn(-c2ccc(NC(=O)c3cn(CC(=O)N4CCNCC4)c4ccc(C)cc34)cc2)c1C [Compound 243] |  | 0.54 µM | 
CCCC(=O)c1cnn(-c2ccc(NC(=O)c3cn(CC(=O)N4CCC(O)C4)c4ccc(Cl)cc34)nn2)c1C (racemic) [Compound 49] |  | 0.22 µM | 
CCCC(=O)c1cnn(-c2ccc(NC(=O)c3cn(CC(=O)N4CCN5CCCC5C4C)c4ccc(Cl)cc34)nn2)c1C (stereo not drawn) [Compound 84] |  | 0.09 µM | 
CCCC(=O)c1cnn(-c2ccc(NC(=O)c3cn(CC(=O)N(C)CCO)c4ccc(Cl)cc34)nn2)c1C [Compound 38] |  | 0.07 µM | 
CCCC(=O)c1cnn(-c2ccc(NC(=O)c3cn(CC(=O)NC4CCCN(C)C4)c4ccc(C)cc34)cc2)c1C (stereo not drawn) [Compound 267] |  |  | IC50 (0.1 h, rat platelet-rich plasma, ADP-induced aggregation, area under the curve of absorbance for 6 minutes, read-out: Inhibition of platelet aggregation in vitro (rat blood)): 0.45 µM
CCCC(=O)c1cnn(-c2ccc(NC(=O)c3cn(CC(=O)N4CCN(CC)CC4)c4ccc(Cl)cc34)nn2)c1C [Compound 47] |  | 0.06 µM | 
CCCC(=O)c1cnn(-c2ccc(NC(=O)c3cn(CC(=O)N4CCC(N)CC4)c4ccc(C)cc34)cc2)c1C [Compound 252] |  | 0.4 µM | 
CCCC(=O)c1cnn(-c2ccc(NC(=O)c3cn(CC(=O)N4CCS(=O)(=O)CC4)c4ccc(Cl)cc34)nn2)c1C [Compound 71] |  | 0.12 µM | 
CCCC(=O)c1cnn(-c2ccc(NC(=O)c3cn(CC(=O)N4CCNC(=O)C4)c4ccc(Cl)cc34)nn2)c1C [Compound 64] |  | 0.06 µM | 
CCCC(=O)c1cnn(-c2ccc(NC(=O)c3cn(CC(=O)N4CCNC(CO)C4)c4ccc(C)cc34)cc2)c1C (stereo not drawn) [Compound 249] |  | 0.24 µM | 
CCCC(=O)c1cnn(-c2ccc(NC(=O)c3cn(CC(=O)N4CC(N5CCOCC5)C4)c4ccc(Cl)cc34)nn2)c1C [Compound 104] |  | 0.1 µM | 
CCCC(=O)c1cnn(-c2ccc(NC(=O)c3cn(CC(=O)N4CC(C)NC(C)C4)c4ccc(Cl)cc34)nn2)c1C (stereo not drawn) [Compound 43] |  | 0.12 µM | 
CCCC(=O)c1cnn(-c2ccc(NC(=O)c3cn(CC(=O)N4CCn5cnnc5C4)c4ccc(Cl)cc34)nn2)c1C [Compound 70] |  | 0.11 µM | 

— patent US8623862B2, “Derivatives of N-[(1H-pyrazol-1-yl)aryl]-1H-indole or 1H-indazole-3-carboxamide, preparation thereof and applications thereof in therapeutics” (Sanofi, priority 2011, dated 2014)
